Data taken from patent publication US12433869B2, “Preventing and treating malaria” (priority 2019, dated 2025).

How the values were obtained:
[1] = test system: RBC membrane permeability to water; assay: Cell scan of whole blood contacted with agents (Example 2), Pk0 measured; assay type: cell-based, human; details: for Pk0: whole blood of healthy volunteer in ACD, agent at the concentration listed in Table 1
Protocol: A sample of whole blood from a healthy volunteer was drawn into ACD anticoagulant. The unwashed sample was divided into aliquots and was analyzed using the Prior Shine Technology and/or the Provided Cell Scanning Technologies. The following outputs were obtained from the sample:
Using the technologies described herein, a cell-by-cell analysis was converted into a plot of percent change of cell volume vs. osmolality (“Cell Scan Plot”) by converting the individual peak voltage into a cell volume, then calculating a mean volume for an aliquot of cells, and plotting the means to generate the Cell Scan Plot. The percentage change of cell volume at each osmolality is calculated and compared to the mean cell volume of an isotonic cell (e.g., FIG. 1b). On such a plot, Pk0 (see 101) is the osmotic pressure at which the net water flow is zero (i.e., when a cell achieved its maximum volume, i.e., when it is a perfect sphere).
A sample of whole blood from a healthy volunteer was drawn into ACD anticoagulant. Blood samples were divided into aliquots, and each sample was contacted with an agent at concentrations consistent with the agent's in vivo concentration. […] Five minutes after exposure to an agent, the blood sample was evaluated for cell membrane permeability and Pk0 was measured.

[2] = test system: RBC membrane permeability; assay: Effect of 5-HT on cell membrane permeability of healthy RBCs (Example 3); assay type: cell-based, human
Protocol: A sample of whole blood from a healthy volunteer was drawn into ACD anticoagulant. The sample was then treated with 5-HT (900 ng/mL), and cell membrane permeability was evaluated 5 minutes after treatment.

Row | Structure (SMILES) | Pk0 [1] [mOsm/kg] | Pk0 after treatment ([2]; 5-HT 900 ng/mL, 5 minutes after treatment, normal Pk0 approx. 140 before) | Pk0 shift after contacting with 5-HT ([2]; FIG. 5, RBCs of normal healthy individual) | Pk0 lowered to ([1]; after 10 minutes) [mOsm/kg]
1 | C[C@@H]1[C@H](O)[C@@H](C)/C=C/C=C/C=C/C=C/C=C/C=C/C=C/[C@H](O[C@@H]2O[C@H](C)[C@@H](O)[C@H](N)[C@@H]2O)C[C@@H]2O[C@](O)(C[C@@H](O)C[C@@H](O)[C@H](O)CC[C@@H](O)C[C@@H](O)CC(=O)O[C@H]1C)C[C@H](O)[C@H]2C(=O)O [Amphotericin B] | 85 | – | – | –
2 | NCCc1c[nH]c2ccc(O)cc12 [Agent 5-HT, 5-hydroxytryptamine] | 110 | approx. 110 mOsm/kg | approx. 30 mOsm/kg | –
3 | OC[C@H]1O[C@@H](O[C@H]2[C@H](O)[C@@H](O)C(O)O[C@@H]2CO)[C@H](O)[C@@H](O)[C@H]1O (some centres unmarked) [Lactose] | – | – | – | 100
